The text below walks through data of ChEMBL document CHEMBL2417363, “Identification of quinazolinyloxy biaryl urea as a new class of SUMO activating enzyme 1 inhibitors” (Bioorg Med Chem Lett, 2013).

Calls of active or inactive are those of the source. The rule behind the calls is not given here.

Data set [1] is described as follows: Permeability across human Caco2 cells. To be noted: Caco-2, read-out: permeability. The class given is ADME, cell-based.
In data set [2] the target is T1, SUMO-activating enzyme (Homo sapiens, UniProt Q9UBT2). The data set can be described thus: Inhibition of SUMO E1 (unknown origin) assessed as SUMO E1-SUMO thioester bond formation. The class given is protein-complex assay.
The nature of data set [3]: Octanol-water partition coefficient, log P of the compound. The class given is physicochemical.
Data set [4] addresses T2, SUMO-activating enzyme (Homo sapiens) (UniProt Q9UBE0+Q9UBT2). As to the kind of experiment: Inhibition of SUMO E1 (unknown origin)-mediated RanGAP1 sumoylation at 100 uM by immunoblotting analysis. The class given is protein-complex assay.
Data set [5] concerns the target T1, SUMO-activating enzyme. As to the kind of experiment: (§1) Inhibition of SUMO E1 (unknown origin)-mediated RanGAP1 sumoylation by immunoblotting analysis. Type of data set: protein-complex assay.
The target of data set [6] is T2, SUMO-activating enzyme (Homo sapiens). The description is as §1. Type of data set: protein-complex assay.
Data set [7] has the same target. As to the kind of experiment: Inhibition of SUMO E1 (unknown origin)-biotinylated SUMO-1 thioester complex formation at 10 uM after 20 mins by SDS-PAGE analysis in presence of ATP. The class given is protein-complex assay.
Data set [8] has the same target. As to the kind of experiment: Inhibition of SUMO E1 (unknown origin)-mediated RanGAP1 sumoylation at < 30 uM by immunoblotting analysis. The class given is protein-complex assay.

T1 sequence (Q9UBE0 whole entry): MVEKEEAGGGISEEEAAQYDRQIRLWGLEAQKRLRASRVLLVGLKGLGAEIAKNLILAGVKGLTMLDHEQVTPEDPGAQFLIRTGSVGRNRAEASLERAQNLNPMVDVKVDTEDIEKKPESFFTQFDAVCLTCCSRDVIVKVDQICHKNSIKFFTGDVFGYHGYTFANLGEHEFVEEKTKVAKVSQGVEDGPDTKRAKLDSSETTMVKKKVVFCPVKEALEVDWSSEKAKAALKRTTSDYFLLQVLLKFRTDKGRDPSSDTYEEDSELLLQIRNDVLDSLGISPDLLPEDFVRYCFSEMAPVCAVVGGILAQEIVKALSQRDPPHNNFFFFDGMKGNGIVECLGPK
T1 sequence (Q9UBT2 whole entry): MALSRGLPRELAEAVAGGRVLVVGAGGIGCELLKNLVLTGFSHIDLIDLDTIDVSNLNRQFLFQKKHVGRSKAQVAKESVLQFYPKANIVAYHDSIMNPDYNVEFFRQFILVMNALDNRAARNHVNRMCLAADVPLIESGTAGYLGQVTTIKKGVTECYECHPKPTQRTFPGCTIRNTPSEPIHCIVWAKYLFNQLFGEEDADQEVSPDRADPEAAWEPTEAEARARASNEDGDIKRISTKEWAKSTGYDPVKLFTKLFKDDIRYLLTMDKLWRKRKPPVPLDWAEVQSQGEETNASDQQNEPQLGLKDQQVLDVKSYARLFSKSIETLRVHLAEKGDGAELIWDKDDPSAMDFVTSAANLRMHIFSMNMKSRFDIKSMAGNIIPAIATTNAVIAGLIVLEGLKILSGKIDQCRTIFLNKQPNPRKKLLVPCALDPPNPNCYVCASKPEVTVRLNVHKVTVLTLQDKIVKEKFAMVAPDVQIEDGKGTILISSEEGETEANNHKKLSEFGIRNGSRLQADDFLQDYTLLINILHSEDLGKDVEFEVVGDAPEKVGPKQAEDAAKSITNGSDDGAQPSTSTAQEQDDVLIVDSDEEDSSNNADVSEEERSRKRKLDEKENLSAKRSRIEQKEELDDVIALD

Take `Cc1cccc(NC(=O)Nc2ccc(Cc3ccc(NC(=O)Nc4cccc(C)c4)cc3)cc2)c1`: the Papp in data set [1] stood at 35.4 ×10⁻⁶ cm/s. On SUMO-activating enzyme [2], the IC50 came to 14.4 µM. In data set [3], this molecule had a logP of 4.8.

With `COc1ccc(NC(=O)Nc2ccc(Cc3ccc(NC(=O)Nc4ccc(OC)cc4)cc3)cc2)cc1`, the Papp in data set [1] worked out at 35.3 ×10⁻⁶ cm/s. In addition, on SUMO-activating enzyme [2], the IC50 amounted to 11.7 µM. The logP in data set [3] was determined as 4.4.

Turning to `O=C(Nc1ccccc1)Nc1ccc(Oc2ncnc3cc(Cl)ccc23)nc1`, the inhibition result in data set [4] is “Active”. The IC50 on SUMO-activating enzyme [5] came out at 57.3 µM. Further, the inhibition entry in data set [6] was “Dose-dependent effect”.

In the case of `O=C(Nc1ccc(F)cc1)Nc1ccc(Oc2ncnc3cc(Cl)ccc23)nc1`, the inhibition entry in data set [4] is “Active”. For the same molecule, the 50% inhibitory concentration (IC50) against SUMO-activating enzyme [5] is 73 µM. The inhibition result in data set [6] is “Dose-dependent effect”.

Take `O=C(Nc1ccc(OCc2ccccc2)cc1)Nc1ccc(Oc2ncnc3cc(Cl)ccc23)nc1`: the inhibition entry in data set [4] is “Active”. This molecule also returned an IC50 at SUMO-activating enzyme [5] of 35.4 µM. For the same molecule, in data set [6], the inhibition entry was “Dose-dependent effect”.

On to `COc1ccc(NC(=O)Nc2ccc(Oc3ncnc4cc(Cl)ccc34)nc2)cc1OC1CCCC1`, for which the inhibition result in data set [4] and in data set [7] was “Active” in each case. On SUMO-activating enzyme [5], this molecule yielded an IC50 of 13.4 µM. The inhibition result in data set [6] was “Dose-dependent effect”.

Take `N#Cc1ccc(NC(=O)Nc2ccc(Cc3ccc(NC(=O)Nc4ccc(C#N)cc4)cc3)cc2)cc1`: the Papp in data set [1] is 1.52 ×10⁻⁶ cm/s. Besides, on SUMO-activating enzyme [2], the IC50 was determined as 11.1 µM. Besides, in data set [3], the logP was 2.8.

As for `O=C(Nc1ccc(Oc2ncnc3cc(Cl)ccc23)nc1)Nc1cccc(C(F)(F)F)c1`, the inhibition result in data set [4] is “Active”. Also, half-maximal inhibition against SUMO-activating enzyme [5] (IC50) was put at 35.6 µM. In data set [6], the inhibition result is “Dose-dependent effect”. Further, the inhibition result in data set [8] was “inactive”. In addition, the Papp in data set [1] came to 66.2 ×10⁻⁶ cm/s. Moreover, the logP in data set [3] was determined as 4.5.

Turning to `CCCCCC/C=C\CCCCCCCc1cccc(O)c1C(=O)O`, in data set [7], the inhibition entry is “Active”.
